The subject of experiment [1] is HCT-116. The experiment can be described thus: Antiproliferative activity against human HCT116 cells assessed as reduction in cell viability at 1 to 100 uM incubated for 24 to 72 hrs by MTT assay. As to conditions: dose 1-100 µM, time 24-72 hrs. Format: functional, cell-based. (In general: Tetrazolium dyes change colour on reduction, which living cells bring about.)

Experiment [2] has as its system HCT-116. Briefly: cells. As to conditions: Homo sapiens.
Experiment [3] deals with SW480. Briefly: Antiproliferative activity against human SW480 cells assessed as reduction in cell viability at 1 to 100 uM incubated for 24 to 72 hrs by MTT assay. Format: functional, cell-based. As to conditions: dose 1-100 µM, time 24-72 hrs.
Experiment [4] relates to SW480. The experiment can be described thus: cells. As to conditions: Homo sapiens.
In experiment [5] the target is T1, Protein tyrosine phosphatase type IVA 3 (Homo sapiens, UniProt O75365). Briefly: Inhibition of human brain PRL-3 (1 to 168 residues) expressed in Escherichia coli BL21(DE3) cells using DiFMUP as substrate incubated for 1 hr by fluorimetric assay.
T1 sequence (O75365 whole entry, the tested form may be a part): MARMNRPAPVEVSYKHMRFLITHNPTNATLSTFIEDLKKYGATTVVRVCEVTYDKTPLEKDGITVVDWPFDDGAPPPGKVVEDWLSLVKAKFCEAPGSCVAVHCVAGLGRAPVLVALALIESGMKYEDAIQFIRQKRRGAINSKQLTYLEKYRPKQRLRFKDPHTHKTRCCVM
The subject of experiment [6] is SW480. Briefly: Induction of apoptosis in human SW480 cells assessed as early apoptotic cells at 25 uM incubated for 24 hrs by Annexin V-FITC/propidium iodide staining based flow cytometry analysis (reference value: 0.52%). Format: functional. (A flow cytometer gives signals particle by particle.)
In experiment [7] the test system is SW480. The experiment can be described thus: Effect on PTP1B expression in human SW480 cells at 5 to 50 uM by Western blot analysis. It is filed as functional, cell-based. As to conditions: dose 5-50 µM. On the technique in general: A western blot detects proteins with antibodies after separation by electrophoresis.
The test system of experiment [8] is SW480. The experiment can be described thus: Induction of apoptosis in human SW480 cells assessed as late apoptotic cells at 50 uM incubated for 24 hrs by Annexin V-FITC/propidium iodide staining based flow cytometry analysis (reference value: 2.58%). Format: functional.
The subject of experiment [9] is SW480. The experiment can be described thus: Antiproliferative activity against human SW480 cells assessed as reduction in cell viability incubated for 24 to 72 hrs by MTT assay. As to conditions: dose 1-100 µM, time 24-72 hrs.
The test system of experiment [10] is SW480. Briefly: Effect on SHP-2 expression in human SW480 cells at 5 to 50 uM by Western blot analysis. Format: functional, cell-based. As to conditions: dose 5-50 µM.
Experiment [11] relates to SW480. The experiment can be described thus: Effect on SHP-1 expression in human SW480 cells at 5 to 50 uM by Western blot analysis. Format: functional, cell-based. As to conditions: dose 5-50 µM.
Experiment [12] deals with SW480. Briefly: Induction of apoptosis in human SW480 cells assessed as late apoptotic cells at 25 uM incubated for 24 hrs by Annexin V-FITC/propidium iodide staining based flow cytometry analysis (reference value: 2.58%). It is filed as functional.
Experiment [13] relates to SW480. Briefly: Induction of apoptosis in human SW480 cells assessed as early apoptotic cells at 50 uM incubated for 24 hrs by Annexin V-FITC/propidium iodide staining based flow cytometry analysis (reference value: 0.52%). Format: functional.
Experiment [14] deals with SW480. Briefly: Effect on TCPTP expression in human SW480 cells at 5 to 50 uM by Western blot analysis. It is filed as functional, cell-based. As to conditions: dose 5-50 µM.
In experiment [15] the test system is SW480. Briefly: Induction of apoptosis in human SW480 cells assessed as early apoptotic cells at 10 uM incubated for 24 hrs by Annexin V-FITC/propidium iodide staining based flow cytometry analysis (reference value: 0.52%). It is filed as functional.
Experiment [16] relates to SW480. The experiment can be described thus: Antiproliferative activity against human SW480 cells assessed as reduction in cell viability at 1 to 100 uM by MTT assay. Format: functional, cell-based. As to conditions: dose 1-100 µM, time 24-72 hrs, TDE = time-dependent effect.
In experiment [17] the test system is SW480. Briefly: Induction of apoptosis in human SW480 cells assessed as decrease in number of cells at 5 to 50 uM after 24 hrs by AO/EB staining based fluorescence inverted microscopic method. Format: functional, cell-based. As to conditions: dose 5-50 µM.
Experiment [18] relates to SW480. Briefly: Induction of apoptosis in human SW480 cells assessed as late apoptotic cells at 5 uM incubated for 24 hrs by Annexin V-FITC/propidium iodide staining based flow cytometry analysis (reference value: 2.58%). It is filed as functional.
The test system of experiment [19] is SW480. Briefly: Down regulation of PRL-3 expression in human SW480 cells by Western blot analysis. It is filed as functional, cell-based. As to conditions: dose 5-50 µM.
For experiment [20], the system named is SW480. Briefly: Induction of apoptosis in human SW480 cells assessed as increase in number of cells with red dye at 5 to 50 uM after 24 hrs by AO/EB staining based fluorescence inverted microscopic method. Format: functional, cell-based. As to conditions: dose 5-50 µM.
In experiment [21] the test system is SW480. The experiment can be described thus: Induction of apoptosis in human SW480 cells assessed as late apoptotic cells at 10 uM incubated for 24 hrs by Annexin V-FITC/propidium iodide staining based flow cytometry analysis (reference value: 2.58%). It is filed as functional.
The subject of experiment [22] is SW480. The experiment can be described thus: Induction of apoptosis in human SW480 cells assessed as early apoptotic cells at 5 uM incubated for 24 hrs by Annexin V-FITC/propidium iodide staining based flow cytometry analysis (reference value: 0.52%). It is filed as functional.
The subject of experiment [23] is SW480. Briefly: Induction of apoptosis in human SW480 cells assessed as change in cell shape at 5 to 50 uM after 24 hrs by AO/EB staining based fluorescence inverted microscopic method. It is filed as functional. As to conditions: dose 5-50 µM.
Experiment [24] deals with T1, Protein tyrosine phosphatase type IVA 3. The experiment can be described thus: Inhibition of PRL-3 (unknown origin) using DiFMUP as substrate incubated for 1 hr.

Consider eight compounds from ChEMBL document CHEMBL4814023, “The dual inhibition against the activity and expression of tyrosine phosphatase PRL-3 from a rhodanine derivative” (Bioorg Med Chem Lett, 2021).

Each structure is given as a SMILES string. Active and inactive are the calls of the source. The calls are words filed in the database; no cut-off is given here.

On to `O=C1NC(=S)S/C1=C\c1ccc(O)c(C(=O)O)c1`, for which the result in the experiment on HCT-116 [1] and in the experiment on SW480 [3] was inactive. The IC50 is 100 µM with HCT-116 [2] and more than 100 µM with SW480 [4].
For `COc1ccc(-c2cc(=O)c3c(O)cc(O)c(-c4cc(-c5cc(=O)c6c(O)cc(OC)cc6o5)ccc4OC)c3o2)cc1` [SCIADOPITISIN], the midpoint of inhibition in experiment [5], the IC50, lay at 46.2 µM. That is a double-digit micromolar value.
On the same count and under the same terms, the figure for `COc1cc(O)c2c(=O)cc(-c3ccc(OC)c(-c4c(O)cc(O)c5c(=O)cc(-c6ccc(O)cc6)oc45)c3)oc2c1` [GINKGETIN] is 25.8 µM.
Turning to `O=C1NC(=S)S/C1=C\c1cc(Cl)ccc1C(F)(F)F`, the Activity in the experiment with SW480 [6] was 2.9%; in the experiment with SW480 [8], 11.72%; in the experiment on SW480 [9], “Dose-Dependent Effect”; in the experiment on SW480 [12], 6.23%; with SW480 [13], 4.77%; in the experiment on SW480 [15], 1.47%. Moreover, the Activity entry was “Tde” in the experiment on SW480 [16]; 4.13% in the experiment with SW480 [18]; “Dose-Dependent Effect” in the experiment on SW480 [19]; 5.91% in the experiment on SW480 [21]; 0.92% in the experiment on SW480 [22]. Besides, the outcome in the experiment on SW480 [7], with SW480 [10], in the experiment on SW480 [11] and in the experiment on SW480 [14] was inactive. Besides, the IC50 worked out at 74.8 µM in the experiment with HCT-116 [2] and 6.64 µM with SW480 [4]. Also, the result with SW480 [17], in the experiment with SW480 [20] and in the experiment with SW480 [23] was Active.
Regarding `N#Cc1cc(/C=C2\SC(=S)NC2=O)ccc1F`, the outcome in the experiment with HCT-116 [1] and with SW480 [3] was inactive. Moreover, the figures for the half-inhibitory concentration (IC50) in the experiment on HCT-116 [2] and in the experiment with SW480 [4] were more than 100 µM and 31.4 µM, respectively.
With `O=C1NC(=S)S/C1=C\c1cc(Cl)ccc1Cl`, the IC50 stood at 26 µM in experiment [24], 16.9 µM in the experiment with HCT-116 [2] and 66.7 µM in the experiment with SW480 [4]. Also, the result in the experiment with HCT-116 [1] and with SW480 [3] was inactive.
As for `O=C1NC(=S)S/C1=C\c1c(F)cc(F)cc1F`, the result with HCT-116 [1] and in the experiment with SW480 [3] was inactive. Also, the IC50 worked out at 16.9 µM in the experiment on HCT-116 [2] and 86.1 µM in the experiment on SW480 [4].
With `Cn1ccnc1/C=C1\SC(=S)NC1=O`, the result in the experiment on HCT-116 [1] and in the experiment with SW480 [3] was inactive. In addition, the IC50 with HCT-116 [2] is more than 100 µM; in the experiment with SW480 [4] it was 78.7 µM.

Broadly, the IC50 is the midpoint of a concentration-inhibition curve. Low readings indicate greater potency in that assay, high ones weaker potency in that assay.
